In US8785488B2 (Exelixis Patent Company LLC, priority 2009, dated 2014):

Experiments:
human TGR5 (h-TGR5) = target: T1, human TGR5 (h-TGR5) (Homo sapiens, UniProt Q8TDU6); assay: TGR5/CRE-Luciferiase Assay (HEK 293 hTGR5/CRE-Luc cells); type: cell-based; conditions: h-TGR5 CRE-Luc EC50, Table 1; read-out: CRE-Luc (EC50)
T1 construct: expressed in transfected cells
T1 sequence (Q8TDU6 1-330): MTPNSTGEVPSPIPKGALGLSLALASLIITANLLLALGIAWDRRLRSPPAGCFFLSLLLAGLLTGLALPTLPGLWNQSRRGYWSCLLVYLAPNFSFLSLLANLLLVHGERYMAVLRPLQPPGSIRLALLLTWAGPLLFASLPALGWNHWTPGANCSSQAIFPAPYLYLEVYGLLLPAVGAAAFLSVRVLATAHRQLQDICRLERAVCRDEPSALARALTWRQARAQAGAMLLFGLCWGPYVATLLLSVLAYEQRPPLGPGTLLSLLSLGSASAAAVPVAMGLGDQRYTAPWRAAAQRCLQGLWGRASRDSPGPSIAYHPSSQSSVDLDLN
In short: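 HEK293 cells stably carrying hTGR5 and a CRE-luciferase reporter were exposed to serially diluted compounds (diluted in DMEM with 5% DMSO) for 6 h. Cells were then lysed in luciferase buffer, luminescence was read, and EC50 values were derived from dose-response curves.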

h-TGR5 = target: T2, h-TGR5 (Homo sapiens, UniProt Q8TDU6); assay: TGR5 cAMP Assay using Cisbio cAMP Dynamic2 htrf kit (hTGR5CRE-luc HEK 293 cells); type: cell-based; conditions: h-TGR5 cAMP EC50, Table 1; read-out: cAMP (EC50)
T2 construct: expressed in transfected cells
T2 sequence (Q8TDU6 1-330): T1 sequence (Q8TDU6 1-330)
Experimental: Compounds were diluted in DPBS with 5% DMSO (8-point serial dilution by half logs) in a 96-well plate and 1 μL was transferred to a 384-well assay plate in quadruplicate. The d2-cAMP and anti-cAMP Ab-cryptate stock solution were prepared as per the instructions in the Cisbio™ (Bedford, Mass.) kit. […] Cells were adjusted to 0.44×10^6 cells/ml followed by addition of IBMX to a final concentration of 0.5 mM. The cells were then mixed with d2-cAMP solution (7.1 mL cells+100 ul d2-cAMP) and 4000 cells (9 μL) were transferred to each well of the 384-well assay plate. Cells without d2-cAMP were added to eight wells as a negative control. The plate was covered and incubated at room temp for 30 min. Then 10 μL of Ab-cryptate solution was added to each well of the assay plate and incubated for 1 hr. The plate was read on an EnVision™ plate reader (Perkin-Elmer, Waltham, Mass.) and the DeltaF value was calculated as per the instructions in the Cisbio™ kit.
In the following tables, EC50 values determined according to the TGR5 cAMP Assay described herein (cAMP); EC50 values determined according to the TGR5/CRE-Luciferiase Assay described herein (CRE-Luc). […] The following compounds in Tables 1 and 2 were made by using procedures described in the above Schemes and Examples, and, where applicable, by making any necessary substitutions of known materials that one skilled in the art would ordinarily understand how to do.

Compound	EC50 (human TGR5 (h-TGR5))	EC50 (h-TGR5)
CC(C)(c1ccc(Cl)c(OCCCN2CCOCC2)c1)c1cnc(SCc2c(F)cccc2Cl)n1-c1ccc(F)cc1	100 to 1000 nM	100 to 1000 nM
CC(C)(c1ccc(F)c(F)c1)c1cnc(SCc2c(F)cc(C(=O)O)cc2F)n1-c1ccc(F)cc1	100 to 1000 nM	< 100 nM
CC(C)(c1ccc(Cl)c(Cl)c1)c1cnc(COc2c(F)cc(C(=O)O)cc2Cl)n1-c1ccc(F)cc1	100 to 1000 nM	100 to 1000 nM
4-({[5-{1-[4-chloro-3-(methyloxy)phenyl]-1- methylethyl}-1-(4-fIuorophenyl)-1H-imidazol- 2-yl]thio}methyl)-3,5-difluoro-N-[(pyrrolidin- 1-ylamino)carbonyl]benzenesulfonamide	< 100 nM	< 100 nM
COc1cc(C(C)(C)c2cnc(SCc3c(F)cc(OCCNC(=N)N)cc3F)n2-c2ccc(F)cc2)ccc1F [1-(2-{[3,5-difluoro-4-({[5-{1-[4-fluoro-3-(methyloxy)phenyl]-1-methylethyl}-1-(4-fluorophenyl)-1H-imidazol-2-yl]thio}methyl)phenyl]oxy}ethyl)guanidine]	< 100 nM	< 100 nM
COc1cc(C(C)(C)c2cnc(SCc3c(F)ccc(OCCCNC(=N)N)c3Cl)n2-c2ccc(F)cc2)ccc1F [1-(3-{[2-chloro-4-fluoro-3-({[5-{1-[4-fluoro-3-(methyloxy)phenyl]-1-methylethyl}-1-(4-fluorophenyl)-1H-imidazol-2-yl]thio}methyl)phenyl]oxy}propyl)guanidine]	< 100 nM	< 100 nM
COc1cc(C(C)(C)c2cnc(SCc3c(F)cc(OCCCNC(=N)N)cc3F)n2-c2ccc(F)cc2)ccc1F [1-(3-{[3,5-difluoro-4-({[5-{1-[4-fluoro-3-(methyloxy)phenyl]-1-methylethyl}-1-(4-fluorophenyl)-1H-imidazol-2-yl]thio}methyl)phenyl]oxy}propyl)guanidine]	< 100 nM	< 100 nM
COc1cc(C(C)(C)c2cnc(SCc3c(F)cc(OCCCNC(=N)N)cc3Cl)n2-c2ccc(F)cc2)ccc1F [1-(3-{[3-chloro-5-fluoro-4-({[5-{1-[4-fluoro-3-(methyloxy)phenyl]-1-methylethyl}-1-(4-fluorophenyl)-1H-imidazol-2-yl]thio}methyl)phenyl]oxy}propyl)guanidine]	< 100 nM	< 100 nM
COc1cc(-n2c(C(C)(C)c3ccc(F)c(Cl)c3)cnc2SCc2c(F)cc(OCCNC(=N)N)cc2F)ccc1F [1-[2-({4-[({5-[1-(3-chloro-4-fluorophenyl)-1-methylethyl]-1-[4-fluoro-3-(methyloxy)phenyl]-1H-imidazol-2-yl}thio)methyl]-3,5-difluorophenyl}oxy)ethyl]guanidine]	< 100 nM	< 100 nM
CC(=O)N1CCC(CSc2ncc(C(C)(C)c3ccc(Cl)c(Cl)c3)n2-c2ccc(F)cc2)CC1 [1-acetyl-4-[({5-[1-(3,4-dichlorophenyl)-1-methylethyl]-1-(4-fluorophenyl)-1H-imidazol-2-yl}thio)methyl]piperidine]	< 100 nM	100 to 1000 nM
CNS(=O)(=O)c1ccc(C(C)(C)c2cnc(SCc3ccc(S(=O)(=O)NC(=O)NN4CCCC4)cc3Cl)n2-c2ccc(F)cc2)cc1OC [4-{1-[2-({[2-chloro-4-({[(pyrrolidin-1-ylamino)carbonyl]amino}sulfonyl)phenyl]methyl}thio)-1-(4-fluorophenyl)-1H-imidazol-5-yl]-1-methylethyl}-N-methyl-2-(methyloxy)benzenesulfonamide]		100 to 1000 nM
CC(C)(c1ccc(S(C)(=O)=O)cc1)c1cnc(SCc2ccc(Cl)c(-c3nnn[nH]3)c2)n1-c1ccc(F)c(F)c1 [5-[2-chloro-5-({[1-(3,4-difluorophenyl)-5-{1-methyl-1-[4-(methylsulfonyl)phenyl]ethyl}-1H-imidazol-2-yl]thio}methyl)phenyl]-1H-tetrazole]		1000 to 10000 nM
CC(C)(c1ccc(S(C)(=O)=O)cc1)c1cnc(SCc2ccc(Cl)c(-c3nnn[nH]3)c2)n1-c1ccc(F)cc1 [5-[2-chloro-5-({[1-(4-fluorophenyl)-5-{1-methyl-1-[4-(methylsulfonyl)phenyl]ethyl}-1H-imidazol-2-yl]thio}methyl)phenyl]-1H-tetrazole]		1000 to 10000 nM

Other lines, results leading:

EC50 (human TGR5 (h-TGR5))	EC50 (h-TGR5)	Compound
< 100 nM	< 100 nM	COc1cc(C(C)(C)c2cnc(SCc3c(F)cc(NC(=O)[C@@H](N)CC(=O)O)cc3Cl)n2-c2ccc(F)cc2)ccc1Cl
100 to 1000 nM	< 100 nM	COc1cc(C(C)(C)c2cnc(SCc3cc(OCCNC(=N)N)c(Cl)cc3F)n2-c2ccc(F)cc2)ccc1Cl [1-(2-{[2-chloro-5-({[5-{1-[4-chloro-3-(methyloxy)phenyl]-1-methylethyl}-1-(4-fluorophenyl)-1H-imidazol-2-yl]thio}methyl)-4-fluorophenyl]oxy}ethyl)guanidine]
< 100 nM	< 100 nM	COc1cc(C(C)(C)c2cnc(SCc3c(F)cc(OCCNC(=N)N)cc3Cl)n2-c2ccc(F)cc2)ccc1Cl [1-(2-{[3-chloro-4-({[5-{1-[4-chloro-3-(methyloxy)phenyl]-1-methylethyl}-1-(4-fluorophenyl)-1H-imidazol-2-yl]thio}methyl)-5-fluorophenyl]oxy}ethyl)guanidine]
< 100 nM	< 100 nM	COc1cc(C(C)(C)c2cnc(SCc3c(F)cc(OCCNC(=N)N)cc3Cl)n2-c2ccc(F)cc2)ccc1F [1-(2-{[3-chloro-5-fluoro-4-({[5-{1-[4-fluoro-3-(methyloxy)phenyl]-1-methylethyl}-1-(4-fluorophenyl)-1H-imidazol-2-yl]thio}methyl)phenyl]oxy}ethyl)guanidine]
< 100 nM	< 100 nM	COc1cc(C(C)(C)c2cnc(SCc3c(F)cc(OCCNC(=N)N)cc3F)n2-c2ccc(F)cc2)ccc1Cl [1-(2-{[4-({[5-{1-[4-chloro-3-(methyloxy)phenyl]-1-methylethyl}-1-(4-fluorophenyl)-1H-imidazol-2-yl]thio}methyl)-3,5-difluorophenyl]oxy}ethyl)guanidine]
< 100 nM	< 100 nM	COc1cc(C(C)(C)c2cnc(SCc3c(F)cc(OCCCNC(=N)N)cc3Cl)n2-c2ccc(F)cc2)ccc1Cl [1-(3-{[3-chloro-4-({[5-{1-[4-chloro-3-(methyloxy)phenyl]-1-methylethyl}-1-(4-fluorophenyl)-1H-imidazol-2-yl]thio}methyl)-5-fluorophenyl]oxy}propyl)guanidine]
< 100 nM	< 100 nM	COc1cc(C(C)(C)c2cnc(SCc3c(F)cc(OCCCNC(=N)N)cc3F)n2-c2ccc(F)cc2)ccc1Cl [1-(3-{[4-({[5-{1-[4-chloro-3-(methyloxy)phenyl]-1-methylethyl}-1-(4-fluorophenyl)-1H-imidazol-2-yl]thio}methyl)-3,5-difluorophenyl]oxy}propyl)guanidine]
< 100 nM	< 100 nM	COc1cc(C(C)(C)c2cnc(SCc3c(F)cc(C#CCNC(=N)N)cc3F)n2-c2ccc(F)cc2)ccc1Cl [1-{3-[4-({[5-{1-[4-chloro-3-(methyloxy)phenyl]-1-methylethyl}-1-(4-fluorophenyl)-1H-imidazol-2-yl]thio}methyl)-3,5-difluorophenyl]prop-2-yn-1-yl}guanidine]
< 100 nM	< 100 nM	COc1cc(C(C)(C)c2cnc(SCc3c(F)cc(CCCNC(=N)N)cc3F)n2-c2ccc(F)cc2)ccc1Cl [1-{3-[4-({[5-{1-[4-chloro-3-(methyloxy)phenyl]-1-methylethyl}-1-(4-fluorophenyl)-1H-imidazol-2-yl]thio}methyl)-3,5-difluorophenyl]propyl}guanidine]
< 100 nM	< 100 nM	COc1cc(C(C)(C)c2cnc(SCc3c(F)cc(CCCCNC(=N)N)cc3F)n2-c2ccc(F)cc2)ccc1Cl [1-{4-[4-({[5-{1-[4-chloro-3-(methyloxy)phenyl]-1-methylethyl}-1-(4-fluorophenyl)-1H-imidazol-2-yl]thio}methyl)-3,5-difluorophenyl]butyl}guanidine]
	100 to 1000 nM	COc1cc(C(C)(C)c2cnc(SCc3ccc(S(=O)(=O)NC(=O)NCC(=O)O)cc3Cl)n2-c2ccc(F)cc2)ccc1Cl [N-[({[3-chloro-4-({[5-{1-[4-chloro-3-(methyloxy)phenyl]-1-methylethyl}-1-(4-fluorophenyl)-1H-imidazol-2-yl]thio}methyl)phenyl]sulfonyl}amino)carbonyl]glycine]
